These results are taken from paper PMC5365662, “A Short Double-Stapled Peptide Inhibits Respiratory Syncytial Virus Entry and Spreading” (Antimicrobial Agents and Chemotherapy, 2017).

Broadly, the Kd is the concentration at which binding is half-saturated.

Bridge positions count the residues as written; N and C are the ends. Square brackets hold non-standard residues; d marks the D form. Peptide text beside a SMILES is read from it. R8 = C=CCCCCCC[C@@](C)(N)C(=O)O; S5 = C=CCCC[C@](C)(N)C(=O)O

One data set is described as follows: circular dichroism. The settings on record: 10 mM phosphate; pH 7.5; 25 °C; 50 uM.
Data set [1] has as its target 5HB, a recombinant protein containing 3 HR1 domains covalently attached to 2 HR2 domains. To be noted: competition with fluorescently labeled T108 probe (2 nM), 5HB 50 nM, 10 min preincubation + 30 min room temperature, duplicates. The text has this:
The RSV HR2 region (residues 476 to 524) is a 49-amino-acid sequence that has been extensively characterized (Fig. 1). HR2 is a largely unstructured peptide in aqueous solution folding into an α-helix upon binding to trimeric HR1 coiled coils ([20]). […] We reduced HR2 (aa 483 to 516) into three short overlapping subdomains (subdomains 1 to 3) (Fig. 1). These peptides were scanned for various stapling combinations. […] Far-UV circular dichroism (CD) spectropolarimetry was used to investigate the effect of stapling on the α-helical content of the peptides. […] To assess the propensity of the stapled peptides to hinder the formation of the postfusion six-helix bundle required for viral cell entry, we used a 5-helix bundle (5HB) biochemical fluorescence polarization (FP) competition assay as previously described ([21], [22]).
The coding sequence of 5HB was designed as described previously and de novo synthesized by Genscript ([21]). The HR1 (aa 126 to 182) and HR2 (aa 476 to 524) coding sequences from wild-type RSV A2 strain F ([36]) were codon optimized for overexpression in Escherichia coli and cloned at NdeI/BamHI restriction sites of pET-15b to generate the expression plasmid for 5HB. The 5HB expression construct was transformed into Escherichia coli BL21(DE3). Cells were grown at 37°C to an optical density at 600 nm of 0.8 followed by induction with isopropyl-1-thio-β-D-galactopyranoside at a final concentration of 0.5 mM for 12 to 15 h. Cells were harvested by centrifugation, washed twice with PBS, and resuspended in 20 ml of PBS (pH 7.4), 500 mM NaCl, and 1% Triton X-100 supplemented with complete protease inhibitor. Cell suspensions were disrupted by sonication. Cell debris was removed through ultracentrifugation at 18,000 × g for 1 h at 4°C, and clarified cell lysate was mixed with 1 ml of nickel-nitrilotriacetic acid (Ni-NTA) agarose beads (Qiagen) preequilibrated with 20 ml of lysis buffer. The suspension was agitated for 1 h at 4°C and loaded onto a 5-ml polypropylene column (Qiagen). The column was washed twice with 8 ml of PBS (pH 7.4), 500 mM NaCl, 1% Triton X-100, and 100 mM imidazole. Proteins were eluted with 5 × 500 μl of a buffer containing PBS (pH 7.4), 300 mM imidazole, and 500 mM NaCl. The imidazole was removed by dialysis, and protein purity was assessed by SDS-polyacrylamide gel electrophoresis followed by Coomassie blue staining. Protein concentration was determined with the Qubit 2.0 Fluorometer (Life Technologies).
The T108 ([12]) peptide probe was synthesized by standard SPPS procedures using HCTU as a coupling reagent as described above. A 10-μl volume of recombinant 5HB protein in FP buffer (20 mM PBS [pH 7.4], 500 mM NaCl, 0.01% [vol/vol] Tween 20, and 0.05 mg/ml bovine gamma globulin) was preincubated for 10 min at room temperature with 10 μl of the appropriate concentration of the inhibitor, after which 10 μl of fluorescein isothiocyanate (FITC)-T106 was added and further incubated for 30 min at room temperature. The final concentrations of protein and probe were 50 nM and 2 nM, respectively. The fluorescence polarization assay was performed in 384-well plates using a Spectramax Paradigm (Molecular Devices), using excitation and emission wavelengths of 485 nm and 535 nm, respectively. The acquisition time was 700 ms, and the read height was 1 mm. All experiments were performed in duplicate. […] In order to ensure robust fitting for some fits, r0 was kept constant at the value measured for the free tracer in buffer.

For data set [2], the system named is recombinant GFP-expressing RSV (strain A2) in A549 cells. Type of data set: cell-based, human respiratory syncytial virus. To be noted: A549 cells, eGFP RSV, GFP-positive cells by FACS 24 h p.i. The method, then:
A549 cells were infected with a recombinant green fluorescent protein (GFP)-expressing RSV (strain A2) ([23]), and the inhibitory activity of the peptide was quantified by flow cytometry.
Each peptide was diluted 3 times by 2-fold serial dilutions. eGFP RSV virus at an MOI of 0.5 was used for the infection, and GFP-positive cells were counted by FACS analysis 24 h p.i. The GFP data were normalized to the fluorescence values observed with virus only and plotted as percent inhibition.
Serial 4-fold dilutions of inhibitors were mixed with eGFP-encoding RSV virus ([23]) with a volume of virus required to achieve approximately 50% of infection in medium containing 2% fetal calf serum. The resulting mixture was added to 24-well plates containing A549 cells. Cells were incubated for 2 h at 37°C, the medium was replaced, and cells were incubated for an additional 24 h. Cells were treated with 300 μl of trypsin for 10 min at 37°C, and the detached cells were diluted in 1 ml of culture medium. Following centrifugation at 1,700 rpm, the pellet was resuspended in 300 μl of PBS–1% fetal bovine serum (FBS) (vol/vol) and GFP-positive cells were counted by fluorescence-activated cell sorter (FACS) analysis. The GFP data were normalized to the fluorescence value observed with virus only. The resulting inhibition curves were fitted in Igor Pro as described above.
A general note: In flow cytometry, cells or beads pass a laser one at a time.

In turn, `CC[C@H](C)[C@@H]1NC(=O)[C@H](Cc2ccccc2)NC(=O)[C@H](C)NC(=O)[C@H](CC(C)C)NC(=O)[C@H](CO)NC(=O)[C@](C)(NC(=O)[C@H](CCC(=O)O)NC(C)=O)CCCCCCC=CCCC[C@@](C)(C(=O)N[C@@H](CO)C(=O)N[C@@H](CC(=O)O)C(=O)N[C@@H](CCC(=O)O)C(=O)N[C@@H](CC(C)C)C(=O)N[C@@H](CC(C)C)C(=O)N[C@@H](Cc2c[nH]cn2)C(=O)N[C@@H](CC(N)=O)C(=O)N[C@H](C(N)=O)C(C)C)NC(=O)[C@H](CCCNC(=N)N)NC1=O` [Peptide 3d] (Ac-E[R8]SLAFIR[S5]SDELLHNV-NH2; staple 2-9) came in with a helicity in the data set “circular dichroism” of 24.4%. Further, in data set [1], the Kd came out at 3.2 ± 2.7 µM. For the same compound, the “inhibition of RSV-eGFP infection (in words)” value (from here on “inhibition”) in data set [2] is “none”.
The matching figures for `CC[C@H](C)[C@H](NC(=O)[C@H](CCCCN)NC(=O)[C@H](CCC(=O)O)NC(=O)[C@H](CC(N)=O)NC(=O)[C@@H](NC(=O)[C@H](CCC(N)=O)NC(=O)[C@]1(C)CCCC=CCCCCCC[C@@](C)(NC(=O)[C@H](CO)NC(=O)[C@@H]2CCCN2C(=O)[C@H](Cc2ccccc2)NC(=O)[C@H](CCC(=O)O)NC(C)=O)C(=O)N[C@@H](CCC(=O)O)C(=O)N[C@@H](Cc2ccccc2)C(=O)N[C@@H](CC(=O)O)C(=O)N[C@@H](C)C(=O)N[C@@H](CO)C(=O)N[C@@H]([C@@H](C)CC)C(=O)N1)C(C)C)C(=O)N[C@@H](CC(N)=O)C(N)=O` [Peptide 1a] (Ac-EFPS[R8]EFDASI[S5]QVNEKIN-NH2; staple 5-12): 14.2%, 9.8 ± 1.5 µM and “none”.
On to `CC[C@H](C)[C@@H]1NC(=O)[C@H](CO)NC(=O)[C@](C)(NC(=O)[C@H](CC(=O)O)NC(=O)[C@H](Cc2ccccc2)NC(C)=O)CCCCCCC=CCCC[C@@](C)(C(=O)N[C@@H](CCCCN)C(=O)N[C@H](C(=O)N[C@@H](CC(N)=O)C(=O)N[C@@H](CCC(N)=O)C(=O)N[C@@H](CO)C(=O)N[C@@H](CC(C)C)C(=O)N[C@@H](C)C(=O)N[C@@H](Cc2ccccc2)C(=O)N[C@H](C(=O)N[C@]2(C)CCCCCCC=CCCC[C@@](C)(C(=O)N[C@@H](CC(N)=O)C(=O)N[C@H](C(=O)N[C@@H](CC(N)=O)C(=O)N[C@@H](C)C(=O)NCC(=O)N[C@@H](CCCCN)C(=O)N[C@@H](CO)C(=O)N[C@H](C(N)=O)[C@@H](C)O)C(C)C)NC(=O)[C@H](CC(C)C)NC(=O)[C@H](CC(C)C)NC(=O)[C@H](CCC(=O)O)NC(=O)[C@H](CC(=O)O)NC(=O)[C@H](CO)NC(=O)[C@H](CCCCN)NC2=O)[C@@H](C)CC)[C@@H](C)CC)NC(=O)[C@H](CC(N)=O)NC(=O)[C@H](C(C)C)NC(=O)[C@H](CCC(N)=O)NC(=O)[C@H](CO)NC1=O` [RSV-SAHBD (Z), reference compound], for which the “inhibition” value in data set [2] is “potency similar to that of peptides 4bb and 4ca”.
For `CC[C@H](C)[C@H](NC(=O)[C@H](CCCCN)NC(=O)[C@H](CCC(=O)O)NC(=O)[C@H](CC(N)=O)NC(=O)[C@@H](NC(=O)[C@H](CCC(N)=O)NC(=O)[C@H](CO)NC(=O)[C@@H](NC(=O)[C@H](CO)NC(=O)[C@H](C)NC(=O)[C@]1(C)CCCC=CCCC[C@](C)(NC(=O)[C@@H]2CCCN2C(=O)[C@H](Cc2ccccc2)NC(=O)[C@H](CCC(=O)O)NC(C)=O)C(=O)N[C@@H](CC(=O)O)C(=O)N[C@@H](CCC(=O)O)C(=O)N[C@@H](Cc2ccccc2)C(=O)N1)[C@@H](C)CC)C(C)C)C(=O)N[C@@H](CC(N)=O)C(N)=O` [Peptide 1d] (Ac-EFP[S5]DEF[S5]ASISQVNEKIN-NH2; staple 4-8), the helicity in “circular dichroism” came to 34.3%. Also, the dissociation constant (Kd) in data set [1] was found to be 8 ± 4 µM. Besides, in data set [2], the “inhibition” value is “none”.
The matching figures for `CC[C@H](C)[C@@H]1NC(=O)[C@H](Cc2ccccc2)NC(=O)[C@@](C)(NC(=O)[C@H](CC(C)C)NC(=O)[C@H](CO)NC(=O)[C@H](CCC(N)=O)NC(=O)[C@H](CCC(=O)O)NC(C)=O)CCCC=CCCC[C@@](C)(C(=O)N[C@@H](CO)C(=O)N[C@@H](CC(=O)O)C(=O)N[C@@H](CCC(=O)O)C(=O)N[C@@H](CC(C)C)C(=O)N[C@@H](CC(C)C)C(=O)N[C@@H](Cc2c[nH]cn2)C(=O)N[C@@H](CC(N)=O)C(=O)N[C@H](C(N)=O)C(C)C)NC(=O)[C@H](CCCNC(=N)N)NC1=O` [Peptide 3a] (Ac-EQSL[S5]FIR[S5]SDELLHNV-NH2; staple 5-9): 33.9%, 5.8 ± 1.8 µM and “none”.
For `CC[C@H](C)[C@H](NC(=O)[C@H](Cc1ccccc1)NC(=O)[C@H](C)NC(=O)[C@H](CC(C)C)NC(=O)[C@H](CO)NC(=O)[C@H](CCC(N)=O)NC(=O)[C@H](CCC(=O)O)NC(C)=O)C(=O)N[C@@H](CCCNC(=N)N)C(=O)N[C@]1(C)CCCCCCC=CCCC[C@@](C)(C(=O)N[C@H](C(N)=O)C(C)C)NC(=O)[C@H](Cc2c[nH]cn2)NC(=O)[C@H](CC(C)C)NC(=O)[C@H](CC(C)C)NC(=O)[C@H](CCC(=O)O)NC(=O)[C@H](CC(=O)O)NC(=O)[C@H](CO)NC1=O` [Peptide 3f] (Ac-EQSLAFIR[R8]SDELLH[S5]V-NH2; staple 9-16), in that order: 26.4%, 4.1 ± 1.9 µM and “none”.
In “circular dichroism”, `CC[C@H](C)[C@H](NC(=O)[C@H](CCCCN)NC(=O)[C@H](CCC(=O)O)NC(=O)[C@H](CC(N)=O)NC(=O)[C@@H](NC(=O)[C@]1(C)CCCC=CCCC[C@](C)(NC(=O)[C@H](CC(=O)O)NC(=O)[C@H](Cc2ccccc2)NC(=O)[C@H](CCC(=O)O)NC(=O)[C@H](CC(=O)O)NC(=O)[C@H](CO)NC(=O)[C@@H]2CCCN2C(=O)[C@H](Cc2ccccc2)NC(=O)[C@H](CCC(=O)O)NC(C)=O)C(=O)N[C@@H](CO)C(=O)N[C@@H]([C@@H](C)CC)C(=O)N[C@@H](CO)C(=O)N1)C(C)C)C(=O)N[C@@H](CC(N)=O)C(N)=O` [Peptide 1f] (Ac-EFPSDEFD[S5]SIS[S5]VNEKIN-NH2; staple 9-13) displayed a helicity of 35.2%. Moreover, the dissociation constant (Kd) in data set [1] was found to be 7.4 ± 1.3 µM. Also, in data set [2], the “inhibition” value is “none”.
The matching figures for `CC[C@H](C)[C@H](NC(=O)[C@H](CCCCN)NC(=O)[C@]1(C)CCCC=CCCCCCC[C@@](C)(NC(=O)[C@H](CC(=O)O)NC(=O)[C@H](Cc2ccccc2)NC(=O)[C@H](CCC(=O)O)NC(=O)[C@H](CC(=O)O)NC(=O)[C@H](CO)NC(=O)[C@@H]2CCCN2C(=O)[C@H](Cc2ccccc2)NC(=O)[C@H](CCC(=O)O)NC(C)=O)C(=O)N[C@@H](CO)C(=O)N[C@@H]([C@@H](C)CC)C(=O)N[C@@H](CO)C(=O)N[C@@H](CCC(N)=O)C(=O)N[C@@H](C(C)C)C(=O)N[C@@H](CC(N)=O)C(=O)N1)C(=O)N[C@@H](CC(N)=O)C(N)=O` [Peptide 1b] (Ac-EFPSDEFD[R8]SISQVN[S5]KIN-NH2; staple 9-16): 19.8%, 47 ± 6 µM and “none”.
